# In patent US8629283B2, “Compounds that modulate negative-sense, single-stranded RNA virus replication and uses thereof” (Icahn School of Medicine at Mount Sinai, priority 2008, dated 2014):
# Entries after “also recorded” stand apart in the source; their conditions may differ.
# Test system: influenza virus
# Assay type: cell-based
row,SMILES,susceptibility of passaged versus unpassaged virus (resistance)
1,CC(=O)c1c(O)c(C)c(O)c(Cc2c(O)c3c(c(C(=O)/C=C/c4ccccc4)c2O)OC(C)(C)C=C3)c1O [rottlerin],No difference; also recorded: emergence of resistant viruses was not observed
2,N#Cc1cc2c(OCC(O)CN3CCN(C(c4ccccc4)c4ccccc4)CC3)cccc2[nH]1 (centres unmarked) [SDZ-201106],No difference; also recorded: emergence of resistant viruses was not observed
